Structures are written as SMILES.

The target of the experiment is T1, TNKS1 (Homo sapiens, UniProt O95271).
T1 construct: purchased BPS Bioscience, San Diego, USA 80579 (TNKS1 Histone Ribosylation Assay Kit)
T1 sequence (O95271 1-1327): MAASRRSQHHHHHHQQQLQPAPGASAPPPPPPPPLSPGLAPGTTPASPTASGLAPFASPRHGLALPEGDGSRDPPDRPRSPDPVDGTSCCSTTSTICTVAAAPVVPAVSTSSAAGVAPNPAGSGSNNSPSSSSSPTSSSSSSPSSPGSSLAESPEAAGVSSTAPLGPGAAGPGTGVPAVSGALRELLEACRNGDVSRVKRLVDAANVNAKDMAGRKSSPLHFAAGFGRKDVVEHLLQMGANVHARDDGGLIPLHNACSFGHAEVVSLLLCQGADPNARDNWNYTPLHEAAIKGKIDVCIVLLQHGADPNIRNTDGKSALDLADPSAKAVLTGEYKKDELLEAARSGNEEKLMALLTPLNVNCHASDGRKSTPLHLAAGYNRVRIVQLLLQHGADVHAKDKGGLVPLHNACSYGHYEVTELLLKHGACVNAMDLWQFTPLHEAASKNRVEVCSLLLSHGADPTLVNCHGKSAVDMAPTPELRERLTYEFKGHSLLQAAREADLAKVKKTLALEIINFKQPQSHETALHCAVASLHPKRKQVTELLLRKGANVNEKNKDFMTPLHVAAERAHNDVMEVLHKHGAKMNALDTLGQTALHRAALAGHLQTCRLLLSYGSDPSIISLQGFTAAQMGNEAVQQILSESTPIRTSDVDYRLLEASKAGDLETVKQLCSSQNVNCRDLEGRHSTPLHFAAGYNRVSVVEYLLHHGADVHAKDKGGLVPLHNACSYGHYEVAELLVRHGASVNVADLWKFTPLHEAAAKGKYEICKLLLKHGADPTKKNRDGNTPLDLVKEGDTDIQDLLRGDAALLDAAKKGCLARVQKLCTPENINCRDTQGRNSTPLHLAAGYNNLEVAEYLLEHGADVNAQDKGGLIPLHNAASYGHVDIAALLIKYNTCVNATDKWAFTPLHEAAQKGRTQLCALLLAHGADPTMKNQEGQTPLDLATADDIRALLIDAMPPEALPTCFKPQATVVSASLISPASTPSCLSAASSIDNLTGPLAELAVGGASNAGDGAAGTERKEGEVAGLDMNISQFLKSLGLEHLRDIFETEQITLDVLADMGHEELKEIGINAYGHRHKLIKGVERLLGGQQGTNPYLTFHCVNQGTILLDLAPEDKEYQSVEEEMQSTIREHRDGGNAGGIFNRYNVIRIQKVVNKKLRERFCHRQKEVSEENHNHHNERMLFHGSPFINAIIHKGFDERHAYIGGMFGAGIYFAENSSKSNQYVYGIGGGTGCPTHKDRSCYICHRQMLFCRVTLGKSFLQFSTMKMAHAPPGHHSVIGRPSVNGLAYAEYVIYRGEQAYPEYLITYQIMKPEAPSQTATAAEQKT
Briefly: TNKS1 Assay B (auto-parsylation, [3H]-NAD+ SPA). The experiment is classed as biochemical. As to conditions: 6 nM TNKS1, auto-parsylation, over night at room temperature.

In the case of `O=C(N[C@H]1CC[C@@]2(CCN(c3cccc(Cl)c3)C2=O)CC1)c1cnc2cccnn12` [Example 269, N-[(trans)-2-(3-chlorophenyl)-1-oxo-2-azaspiro[4.5]dec-8-yl]imidazo[1,2-b]pyridazine-3-carboxamide], the IC50 – broadly, the concentration that inhibits the measured activity by half – came to 800 nM. This counts as sub-micromolar.

Turning to `Cc1cc(C)n2ncc(C(=O)N[C@H]3CC[C@@]4(CCN(c5cccc(Cl)c5)C4=O)CC3)c2n1` [Example 270, N-[(trans)-2-(3-chlorophenyl)-1-oxo-2-azaspiro[4.5]dec-8-yl]-5,7-dimethylpyrazolo[1,5-a]pyrimidine-3-carboxamide], half-maximal inhibition (IC50) required 160 nM.

For `O=C(N[C@H]1CC[C@@]2(CCN(c3ccccc3Cl)C2=O)CC1)c1cnc2cccnn12` [Example 271, N-[(trans)-2-(2-chlorophenyl)-1-oxo-2-azaspiro[4.5]dec-8-yl]imidazo[1,2-b]pyridazine-3-carboxamide], 15 nM corresponded to half-maximal inhibition (IC50).

With `CNC(=O)c1nc[nH]c1C(=O)N[C@H]1CC[C@@]2(CCN(c3cccc(Cl)c3)C2=O)CC1` [Example 276, N^5-[(trans)-2-(3-chlorophenyl)-1-oxo-2-azaspiro[4.5]dec-8-yl]-N^4-methyl-1H-imidazole-4,5-dicarboxamide], the midpoint of inhibition, the IC50, lay at 180 nM. The value for `CCNC(=O)c1nc[nH]c1C(=O)N[C@H]1CC[C@@]2(CCN(c3cccc(Cl)c3)C2=O)CC1` [Example 277, N^5-[(trans)-2-(3-chlorophenyl)-1-oxo-2-azaspiro[4.5]dec-8-yl]-N^4-ethyl-1H-imidazole-4,5-dicarboxamide] was 260 nM; that for `CC(C)NC(=O)c1nc[nH]c1C(=O)N[C@H]1CC[C@@]2(CCN(c3cccc(Cl)c3)C2=O)CC1` [Example 278, N^5-[(trans)-2-(3-chlorophenyl)-1-oxo-2-azaspiro[4.5]dec-8-yl]-N^4-(propan-2-yl)-1H-imidazole-4,5-dicarboxamide] was 450 nM. On to `O=C(NC1CC1)c1nc[nH]c1C(=O)N[C@H]1CC[C@@]2(CCN(c3cccc(Cl)c3)C2=O)CC1` [Example 279, N^5-[(trans)-2-(3-chlorophenyl)-1-oxo-2-azaspiro[4.5]dec-8-yl]-N^4-cyclopropyl-1H-imidazole-4,5-dicarboxamide], for which the IC50 worked out at 290 nM. As for `O=C(N[C@H]1CC[C@@]2(CCN(c3cccc(Cl)c3)C2=O)CC1)c1[nH]cnc1C(=O)N1CC(F)C1` [Example 280, N-[(trans)-2-(3-chlorophenyl)-1-oxo-2-azaspiro[4.5]dec-8-yl]-4-[(3-fluoroazetidin-1-yl)carbonyl]-1H-imidazole-5-carboxamide], the 50% inhibitory concentration (IC50) was found to be 220 nM. `O=C(NCC(F)(F)F)c1nc[nH]c1C(=O)N[C@H]1CC[C@@]2(CCN(c3cccc(Cl)c3)C2=O)CC1` [Example 281, N^5-[(trans)-2-(3-chlorophenyl)-1-oxo-2-azaspiro[4.5]dec-8-yl]-N^4-(2,2,2-trifluoroethyl)-1H-imidazole-4,5-dicarboxamide] displayed a half-maximal inhibitory concentration (IC50) of 330 nM.

`COCCNC(=O)c1nc[nH]c1C(=O)N[C@H]1CC[C@@]2(CCN(c3cccc(Cl)c3)C2=O)CC1` [Example 282, N^5-[(trans)-2-(3-chlorophenyl)-1-oxo-2-azaspiro[4.5]dec-8-yl]-N^4-(2-methoxyethyl)-1H-imidazole-4,5-dicarboxamide] registered an IC50 of 310 nM.

(Values after US20180148418A1, “AMIDO-SUBSTITUTED CYCLOHEXANE DERIVATIVES” (Bayer Pharma Aktiengesellschaft, priority 2015, published 2018).)
